Measured values: US9856230B2 (University of Sunderland, priority 2012, dated 2018)
Like-named read-outs stand apart in the source and are kept apart here.

How the values were obtained:
[1] = target: T1, Trx system (thioredoxin/thioredoxin reductase) (Homo sapiens, UniProt Q16881); experiment: Thioredoxin/thioredoxin reductase insulin reduction assay; type: biochemical; conditions: for inhibition at 500 µM: compound at 500 μM, read-out: Inhib. (%) Trx Syst. at 500 μM
T1 sequence (Q16881 151-649 limits assumed): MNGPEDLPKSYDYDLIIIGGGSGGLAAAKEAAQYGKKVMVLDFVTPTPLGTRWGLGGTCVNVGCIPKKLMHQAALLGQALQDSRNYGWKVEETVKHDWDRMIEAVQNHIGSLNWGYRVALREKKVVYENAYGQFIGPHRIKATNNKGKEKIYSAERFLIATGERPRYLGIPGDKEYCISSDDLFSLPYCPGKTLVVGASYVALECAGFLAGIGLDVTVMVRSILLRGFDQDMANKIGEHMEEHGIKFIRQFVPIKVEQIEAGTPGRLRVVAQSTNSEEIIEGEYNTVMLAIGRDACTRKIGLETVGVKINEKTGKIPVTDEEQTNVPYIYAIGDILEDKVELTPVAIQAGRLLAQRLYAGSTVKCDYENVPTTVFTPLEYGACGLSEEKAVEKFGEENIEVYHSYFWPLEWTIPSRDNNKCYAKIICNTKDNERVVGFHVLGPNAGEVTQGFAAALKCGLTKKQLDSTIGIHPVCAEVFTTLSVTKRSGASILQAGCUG
Experimental: Thioredoxin/thioredoxin reductase inhibition was measured using the insulin reduction assay (Stevens, M. F. G., Pallis, M., Bradshaw, T. D., Westwell, A. D., Grundy, M., Russell, N, “Induction of apoptosis without redox catastrophe by thioredoxin-inhibitory compounds”, Biochem. Pharmacol. (2003) 66, 1695-1705). […] The first part of the assay involves TrxR reducing oxidized Trx via NADPH. The reduced Trx then reduces disulfide bonds in the insulin, leaving exposed thiol groups, as summarized by the Trx reaction scheme.
The addition of dithionitrobenzoic acid (DTNB) to the free thiol groups of the insulin cleaves the disulfide bond in the DTNB which gives rise to a yellow colour (DTNB reaction scheme). The yellow colour is observed under basic conditions due to the conjugation of electrons between the thiolate anion and the nitro group of thionitrobenzoic acid (TNB). The level of thioredoxin/thioredoxin reductase inhibitory activity is […] proportional to the intensity of the yellow colour.
Addition of DTNB to reduced insulin produces thionitrobenzoic acid (TNB) and a mixed insulin disulfide. DTNB has very little absorbance, but under mild basic conditions TNB forms an anion that gives an intense yellow colour at 412 nm.
Synthesized compounds were tested for thioredoxin/thioredoxin reductase activity using the thioredoxin/thioredoxin reductase insulin assay described above under the heading “Assays”. The compounds were also tested for antiproliferative activity using the MTT assay described above under the heading “Assays”. Theoretical C log P values for the compounds were calculated using ChemDraw. The C log P of a compound is the logarithm of the compound's partition coefficient between n-octanol and water log(coctanol/cwater) and represents a measure of the compound's hydrophilicity and hydrophobicity. […]

[2] = system: HPV-16 immortalized keratinocyte cell line (CCD-1106 KERTr); experiment: cells; type: cell-based; conditions: Homo sapiens;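 note: growth inhibition read as spectrophotometric formazan colour from mitochondrial dehydrogenase cleavage of MTT, proportional to viable cell number, modelling psoriatic hyperproliferation, lower values mean stronger antiproliferative activity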
Description: The assay is based on the ability of a mitochondrial dehydrogenase enzyme to cleave the tetrazolium rings of the yellow MTT to form dark blue formazan crystals (MTT reaction scheme). These crystals are mostly impermeable to cell membranes and, consequently, they accumulate in healthy viable cells. The addition of detergent solubilizes the cells, which results in the liberation of purple formazan crystals. The number of viable cells is directly proportional to the level of purple formazan produced. This colour change can be measured by a spectrophotometer enabling quantification of changes in cellular proliferation. Compound activity measured by the MTT assay (or other proliferation related assay) may be given as a GI50 value.
A human papilloma virus-16 (HPV-16) immortalized keratinocyte cell line (CCD-1106 KERTr) was used in the MTT cell viability assay.
Antiproliferative activity is indicated by the MTT GI50 (μM), where a lower value indicates higher activity.

[3] = insulin reduction assay, read-out: Trx System IC50
[4] = CCD-1106 KERTr keratinocytes, read-out: MTT GI50

SMILES	inhibition at 500 µM [1] [%]	IC50 [1, 3] [µM]	GI50 [2, 4] [µM]	IC50 ([2]; CCD-1106, read-out: IC50 in MTT assay (antiproliferative activity)) [µM]	IC50 [1] [µM]	GI50 ([2]; CCD-1106, read-out: MTT GI50 (μM)) [µM]
Cc1ccc(S(=O)(=O)Nc2ccc(NC(=O)c3cccs3)cc2NS(=O)(=O)c2ccc(C)cc2)cc1 [(55), N-(3,4-bis-(toluene-4-sulfonylamino)phenyl)-2-thiophenecarboxamide]	61.5	494	3.3	–	–	–
Cc1ccc(S(=O)(=O)Nc2ccc(CN)cc2NS(=O)(=O)c2ccc(C)cc2)cc1 [(30), 3,4-bis(toluene-4-sulfonylamino)benzyl amine]	98.7	377	162	–	–	–
Cc1ccc(S(=O)(=O)Nc2ccc(C=O)cc2NS(=O)(=O)c2ccc(C)cc2)cc1 [(37), 3,4-bis-(toluene-4-sulfonylamino)benzaldehyde]	81	374	12	–	–	–
COC(=O)c1ccc(NS(=O)(=O)c2ccc(Cl)cc2)c(NS(=O)(=O)c2ccc(Cl)cc2)c1 [(27), methyl 3,4-bis-(4-chlorobenzenesulfonylamino)benzoate]	62.3	277	0.64	–	–	–
Cc1ccc(S(=O)(=O)Nc2ccc(NS(N)(=O)=O)cc2NS(=O)(=O)c2ccc(C)cc2)cc1 [(33c), 3,4-bis(toluene-4-sulfonylamino)phenylsulfamide]	38.6	–	114	–	–	–
CCOC(=O)CN(CC(=O)OCC)Cc1ccc(NS(=O)(=O)c2ccc(C)cc2)c(NS(=O)(=O)c2ccc(C)cc2)c1 [(32), ethyl {[3,4-bis-(toluene-4-sulfonylamino)benzyl]-ethoxycarbonylmethyl-amino}acetate]	58.1	–	9	–	–	–
O=C(Nc1ccc(NS(=O)(=O)c2ccc(F)cc2)c(NS(=O)(=O)c2ccc(F)cc2)c1)c1ccco1 [Compound (103)]	–	–	–	36.2	–	–
COC(=O)c1ccc(NS(=O)(=O)c2ccc(C(F)(F)F)cc2)c(NS(=O)(=O)c2ccc(C(F)(F)F)cc2)c1 [(19b), methyl 3,4-bis-(4-trifluoromethylbenzenesulfonylamino)benzoate]	33.4	429	5.4	–	–	–
Cc1ccc(S(=O)(=O)Nc2ccc(C#N)cc2NS(=O)(=O)c2ccc(C)cc2)cc1 [(21b), 3,4-bis-(toluene-4-sulfonylamino)benzonitrile]	58.4	–	4.7	–	–	–
COC(=O)c1ccc(NS(=O)(=O)c2ccc(OC(F)(F)F)cc2)c(NS(=O)(=O)c2ccc(OC(F)(F)F)cc2)c1 [(19c), methyl 3,4-bis-(4-trifluoromethoxybenzenesulfonylamino)benzoate]	43.7	546	2.2	–	–	–
Cc1ccc(S(=O)(=O)Nc2ccc(C(N)=O)cc2NS(=O)(=O)c2ccc(C)cc2)cc1 [(29), 3,4-bis-(toluene-4-sulfonylamino)benzamide]	19.9	–	104	–	–	–
Cc1ccc(S(=O)(=O)Nc2ccc(C(=N)NO)cc2NS(=O)(=O)c2ccc(C)cc2)cc1 [(21c), N-hydroxy-3,4-bis-(toluene-4-sulfonylamino)benzamidine]	32.4	–	108	–	–	–
Cc1ccc(S(=O)(=O)Nc2ccc(NC(=O)Cn3ccc(=O)[nH]c3=O)cc2NS(=O)(=O)c2ccc(C)cc2)cc1 [(42), N-[3,4-bis-(toluene-4-sulfonylamino)phenyl]-2-(2,4-dioxo-3,4-dihydro-2H-pyrimidin-1-yl)acetamide]	70.7	339	100	–	–	–
Cc1ccc(S(=O)(=O)Nc2ccc(N)cc2NS(=O)(=O)c2ccc(C)cc2)cc1 [(33b), 3,4-bis(toluene-4-sulfonylamino)phenyl amine]	31.6	–	48.9	–	–	–
CCNC(=O)Nc1ccc(NS(=O)(=O)c2ccc(C)cc2)c(NS(=O)(=O)c2ccc(C)cc2)c1 [(33d), ethyl [3,4-bis(toluene-4-sulfonylamino)]phenyl urea]	88.3	–	55.9	–	–	–
CC(C)=CCN(CC=C(C)C)Cc1ccc(NS(=O)(=O)c2ccc(C)cc2)c(NS(=O)(=O)c2ccc(C)cc2)c1 [(31), [3,4-bis-(toluene-4-sulfonylamino)benzyl]bis-(3-methyl-but-2-enyl)amine]	70	–	7.9	–	–	–
Cc1ccc(S(=O)(=O)Nc2ccc(CO)cc2NS(=O)(=O)c2ccc(C)cc2)cc1 [(36), (3,4-bis-(toluene-4-sulfonylamino)phenyl)methanol]	50	–	19.1	–	–	–
Cc1ccc(S(=O)(=O)Nc2ccc(-c3ccc(F)c(C#N)c3)cc2NS(=O)(=O)c2ccc(C)cc2)cc1 [(53), 3′,4′-bis-(toluene-4-sulfonylamino)-4-fluorobiphenyl-3-carbonitrile]	71.1	106	0.156	–	–	–
C=CC(=O)Nc1ccc(NS(=O)(=O)c2ccc(C)cc2)c(NS(=O)(=O)c2ccc(C)cc2)c1 [(39), N-[3,4-bis-(toluene-4-sulfonylamino)-phenyl]acrylamide]	73.9	156	18.8	–	–	–
COC(=O)c1ccc(NS(=O)(=O)c2ccc(C)cc2)c(NS(=O)(=O)c2ccc(C)cc2)c1 [(12), methyl 3,4-diamino-N,N-bis-(toluene-4-sulfonylamino)benzoate]	30	1360	4.1	–	–	–
COC(=O)c1ccc(NS(=O)(=O)c2ccc(Cl)s2)c(NS(=O)(=O)c2ccc(Cl)s2)c1 [(25), methyl 3,4-bis-(5-chloro-thiophene-2-sulfonylamino)benzoate]	61	–	1.2	–	–	–
COC(=O)c1ccc(NS(=O)(=O)c2ccc(OC)cc2)c(NS(=O)(=O)c2ccc(OC)cc2)c1 [(19d), methyl 3,4-bis-(4-methoxybenzenesulfonylamino)benzoate]	14.6	–	5.2	–	–	–
Cc1ccc(S(=O)(=O)Nc2ccc(C(=O)O)cc2NS(=O)(=O)c2ccc(C)cc2)cc1 [(35), 3,4-bis-(toluene-4-sulfonylamino)benzoic acid]	20	–	67.3	–	–	–
Cc1ccc(S(=O)(=O)Nc2ccc(NC(=O)Nc3ccccc3)cc2NS(=O)(=O)c2ccc(C)cc2)cc1 [(33e), phenyl [3,4-bis(toluene-4-sulfonylamino)]phenyl urea]	0	–	6.2	–	–	–
COC(=O)c1ccc(NS(=O)(=O)c2ccc(N)cc2)c(NS(=O)(=O)c2ccc(N)cc2)c1 [(19e), methyl 3,4-bis-(4-aminobenzenesulfonylamino)benzoate]	86.7	386	> 420	–	–	–
Cc1ccc(S(=O)(=O)Nc2ccc(-c3noc(C(C)C)n3)cc2NS(=O)(=O)c2ccc(C)cc2)cc1 [(21d), 1-(5′-isopropyl-1′,2′,4′-oxadiazol-3-yl)-3,4-bis-(toluene-4-sulfonylamino)benzene]	13.9	–	3.2	–	–	–
COC(=O)c1ccc(NS(=O)(=O)c2ccc([N+](=O)[O-])cc2)c(NS(=O)(=O)c2ccc([N+](=O)[O-])cc2)c1 [(19a), methyl 3,4-bis-(4-nitrobenzenesulfonylamino)benzoate]	53.3	–	–	–	475	11.2
Cc1ccc(S(=O)(=O)Nc2ccc(C(=O)NC(C)(C)C)cc2NS(=O)(=O)c2ccc(C)cc2)cc1 [(28), N-tert-butyl-3,4-bis-(toluene-4-sulfonylamino)benzamide]	10	–	5.1	–	–	–
